Experimental data reported in PubChem BioAssay AID179 (DTP/NCI, 2004).
Where “and” joins values, the source holds several entries; their conditions need not be identical. Identical values can stand only once. Calls of active or inactive are those of the source.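 How the source made its calls: active means compounds giving half or more protection of infected cells from virus-caused growth loss, again on retest; inactive means the rest.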 Where a SMILES comes first, the peptide text is derived from it. The star is where a group is joined. Cbz = O=C(OCc1ccccc1)*

Tested on: CEM cells HIV-1 protection, formazan growth assay
Assay: NCI AIDS Antiviral Assay
Details: for IC50: measured here: growth of uninfected CEM cells
How it was run: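 Human CEM cells, uninfected and HIV-1-infected, exposed to five drug concentrations; growth measured by soluble formazan assay and scored as percent protection from infection, with protecting compounds retested.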

SMILES | EC50 [µM] | IC50 | outcome
C1C2CC3CC1CC(c1nn4c(C56CC7CC(CC(C7)C5)C6)nnc4s1)(C2)C3 | > 200 | > 200 µM | –
C=C(C)C12CC(C)C34OC(CCCCCCCCCCC)(OC1C3C1OC1(CO)C(O)C1(O)C(=O)C(C)=CC14C)O2 (configuration not stated) | – | – | active
COC(=O)c1c2cccccc-2c(Cc2c3cccccc-3c(C(=O)OC)c2O)c1O | > 200 | > 200 µM | –
COC(=O)NCC(OC(=O)c1cc2c(cc1I)OCO2)C1=CCCCC1 (configuration not stated) | > 28.8 | > 28.8 µM | –
CC1(C)C[N+](C)(C)C2(CCCC2)O1 | > 200 | > 200 µM | –
CCCCCCCCCCCCCCCC=C(c1cc(Cl)c(OC)c(C(=O)O)c1)c1cc(Cl)c(OC)c(C(=O)O)c1 | > 1200 | 26.3 µM and 52.5 µM | –
Cc1cc(N(C)C)ccc1N=Nc1ccc2ncccc2c1 | – | – | inactive
O=C(O)C(=Cc1ccc(-c2ccc([N+](=O)[O-])cc2)o1)C(=O)O | > 200 | > 200 µM | –
O=C(Nc1cc(C(=O)Nc2ccc(C3=NCCN3)cc2)cc(C2=NCCN2)c1)c1ccc(C(=O)Nc2cc(C(=O)Nc3ccc(C4=NCCN4)cc3)cc(C3=NCCN3)c2)cc1 | 5.37 | 89.1 µM | –
COC(=O)c1cc(=O)n(Cc2ccco2)c(=Nc2ccccc2)s1 | > 100 | 13.8 µM | –
COc1ccc(NC(=O)CC2SC(=Nc3ccc(Cl)cc3C)NC2=O)c([N+](=O)[O-])c1 (configuration not stated) | > 398 | > 398 µM | –
CC/C(=C(\c1ccccc1)c1ccc(OCCN(C)C)cc1)c1ccccc1 | > 83.2 | 14.8 µM | –
O=S1c2ccccc2-c2ccccc21 | > 447 | > 447 µM | –
COc1cc(Nc2nc3cc(C)ccc3nc2-c2ccccc2)cc(OC)c1OC | > 200 | 34.7 µM | –
CC(C)N(C(=O)C12C3(C(=O)C(C)(C)C)C4C5(C#N)C3C1(C(=O)C(C)(C)C)C5C42C(=O)C(C)(C)C)C(C)C (configuration not stated) | > 151 | > 151 µM | –
CN1Cc2c(ccc3c2OCO3)C2C(O)Cc3cc4c(cc3C21)OCO4 (configuration not stated) | > 0.912 | 0.234 µM | –
O=C(COc1ccc(OCC(=O)N2C(=O)CC(=O)N(c3ccccc3)C2=S)cc1)N1C(=O)CC(=O)N(c2ccccc2)C1=S | > 141 | 75.9 µM | –
CCCC(=O)NC1CCc2cc(OC)c(OC)c(OC)c2-c2ccc(OC)c(=O)cc21 (configuration not stated) | > 2 | 0.0126 µM | –
C#CCCCOc1ncccn1 | > 200 | > 200 µM | –
O=C(NCCCCCN1CCC2(CCCCC2)CC1)C(c1ccccc1)C1CCCCC1 (configuration not stated) | > 200 | 5.75 µM | –
N#Cc1c(Sc2ccccc2N)cccc1Sc1ccccc1N | > 200 | > 200 µM | –
CC(=O)/C=C/CCC1CCC(=O)C1(C)C(=O)OC(C)(C)C (configuration not stated) | > 115 | 39.8 µM | –
COC(=O)C(=O)C(C(=O)C(=O)Nc1ccccc1OC)c1nc2ccc([N+](=O)[O-])cc2[nH]c1=O (configuration not stated) | > 537 | 95.5 µM | –
CCN(c1ccc(Br)cc1)c1c(Br)c(=O)nc2ccccn12 | > 525 | 97.7 µM | –
O=C(/C=C/c1ccc(Cl)cc1)c1ccc(Cl)c(Cl)c1 | > 32.4 | > 32.4 µM | –
CC(=O)N=C1N(/C=C2\C(=O)Oc3ccccc3C2=O)C(=O)/C(=C/c2ccc3c(c2)OCO3)N1C | > 200 | > 200 µM | –
COc1ccc(C(=O)/C=C/c2ccc(OCCCOc3ccc(/C=C/C(=O)c4ccc(OC)cc4)cc3)cc2)cc1 | > 200 | > 200 µM | –

SMILES | EC50 [µM] | IC50 | outcome
O=C(OCc1ccccc1)N1c2cc([N+](=O)[O-])ccc2C(=O)N2CCC[C@H]2C1O (some centres not stated) | > 200 | 138 µM | –
COc1cccc(/C=C/c2cnc3ccccc3n2)c1OC | > 200 | 151 µM | –
CC(C)(C)OC(=O)N1CCC2(CC1)C(=O)NCN2c1ccccc1 | > 200 | > 200 µM | –
CC(=O)c1ccc(Cc2ccc(C(C)=O)s2)s1 | > 200 | > 200 µM | –
NC1=NNC(=O)C1N=Nc1ccc(S(=O)(=O)Nc2nccs2)cc1 (configuration not stated) | > 200 | > 200 µM | –
CC(C)CCCC(C)C1CCC2C3CCC4CC5(CCC4(C)C3CCC12C)NCCCS5 (configuration not stated) | > 1.58 | > 1.58 µM | –
COc1cc(N(C)C)c(OC)cc1C=C1C=CC=C1 | > 977 | 0.407 µM | –
CCOC(=O)CCC(NC(=O)C(CC(=O)OC)NC(=O)OCc1ccccc1)C(=O)NC(CC(=O)OC)C(=O)NC(CCC(=O)OCC)C(=O)NC(CC(=O)OC)C(=O)NC(CCC(=O)OCC)C(=O)NC(CC(=O)OC)C(=O)NC(CCC(=O)OCC)C(=O)NC(CC(=O)OC)C(=O)NC(CCC(=O)OCC)C(=O)NC(CC(=O)OCC)C(=O)OCC (configuration not stated) (Cbz-D(OMe)E(OEt)D(OMe)E(OEt)D(OMe)E(OEt)D(OMe)E(OEt)D(OMe)E(OEt)D(OEt)-OEt; configuration not given here) | > 50.1 | > 50.1 µM | –
NNC(=O)C(=O)N/N=C(/CCC(=O)NCCc1ccccc1)CC(=O)c1ccccc1 | – | – | inactive
COc1ccc2c(c1)C1Oc3ccccc3CC1CO2 (configuration not stated) | > 200 | 52.5 µM | –
COc1cc2c(cc1O)C(C)Cc1cc3c(cc1N(C)CC2)OCO3 (configuration not stated) | > 117 | 2.24 µM | –
O=C1[C@@H]2C(c3ccccc3[N+](=O)[O-])=[N+](c3ccccc3)O[C@@H]2C(=O)N1c1ccc(Cc2ccc(N3C(=O)[C@H]4C(c5ccccc5[N+](=O)[O-])=[N+](c5ccccc5)O[C@H]4C3=O)cc2)cc1 | > 8.51 | > 8.51 µM | –
CCOC(=O)C(C)(C)Oc1ccc2c(-c3ccccc3)cc(=O)oc2c1 | > 20.4 | > 20.4 µM | –
CCN(CC)CC(=O)Nc1cc(C)ccc1Cl | > 200 | > 200 µM | –
C=C1CCc2occ(C)c2C2C1C1=C(CC(C)C1=O)C1OC12C (configuration not stated) | > 219 | > 219 µM | –
O=C1C=C2C[C@H]3C(O)C[C@]2(O1)[C@H]1CCCN31 (some centres not stated) | > 112 | > 112 µM | –
C=CC[C@H]1O[Si](C(C)(C)C)(C(C)(C)C)[C@H](C)[C@H]1C | > 200 | > 200 µM | –
COC(=O)C(C)(C)C(OP(=S)(N(C)C)N(C)C)=C(C)C | > 22.4 | > 22.4 µM | –
COC(=O)NC(S(=O)(=O)O)S(=O)(=O)O | – | – | inactive
O=C(NO)C(=O)Nc1cc(Cl)ccc1Cl | > 145 | 66.1 µM | –
COC(=O)C1Cc2c([nH]c3ccccc23)C(c2ccccc2O)N1Cc1ccccc1 (configuration not stated) | – | – | inactive
Cc1cc(C)c(S(=O)(=O)N(CCCCCCN)OCCCN)c(C)c1 | > 200 | 30.2 µM | –
[N-]=[N+]=Nc1cc(=O)n(-c2ccccc2)c(=O)n1-c1ccccc1 | > 200 | > 200 µM | –
CN(C)N1CCOC1=O | > 200 | > 200 µM | –
OCC(CO)C1c2cccc3ccc4cccc1c4c23 | – | – | inactive
CCCOc1ccc2[nH]cc(C(COC)c3c[nH]c4ccc(OCCC)cc34)c2c1 | > 200 | 12.9 µM | –
CCCCCC=C(c1cc(Cl)c(OC)c(-c2nc(C)no2)c1)c1cc(Cl)c(OC)c(-c2nc(C)no2)c1 | > 200 | 10.2 µM | –

SMILES | EC50 [µM] | IC50 | outcome
O=C(O)C(CO)NC(=O)C1CCCN1C(=O)OCc1ccccc1 (stereo not drawn) (Cbz-Pro-Ser-OH; configuration not given here) | > 77.6 | > 77.6 µM | –
CC#N.CC#N.COC(=O)[C@@H]1CN(C(=O)c2ccccc2)C(=O)[N-]1.COC(=O)[C@@H]1CN(C(=O)c2ccccc2)C(=O)[N-]1.COC(=O)[C@@H]1CN(C(=O)c2ccccc2)C(=O)[N-]1.COC(=O)[C@@H]1CN(C(=O)c2ccccc2)C(=O)[N-]1.[Rh+2].[Rh+2] | 10.7 | 87.1 µM | –
CC1(C)OC([C@H](O)CO)C([C@H]2NCCS2)O1 (some centres not stated) | > 200 | > 200 µM | –
CC(C)n1c(=O)n(-c2ccccc2)n(C(C)(C)C)c1=O | > 200 | > 100 µM | –
Nc1cc(S(N)(=O)=O)ccc1SSc1ccc(S(N)(=O)=O)cc1N | 21.4 | 63.1 µM | –
O=C(O)c1cc(-c2c3ccc(=O)cc-3oc3cc(O)ccc23)c(C(=O)O)cc1-c1c2ccc(=O)cc-2oc2cc(O)ccc12 | > 200 | > 200 µM | –
N#CNC(N)=NC1=CC(=O)C(=O)c2ccccc21 | > 30.2 | 17.4 µM | –
Cc1cc2c(c3oc(=O)cc(C)c13)[C@@H](OC(=O)C13CCC(C)(C(=O)O1)C3(C)C)[C@@H](OC(=O)C13CCC(C)(C(=O)O1)C3(C)C)C(C)(C)O2 (some centres not stated) | 0.912 | > 200 µM | –
CNC(=S)NC(=S)N(C)C | – | – | inactive
O=C(O)[C@H](Cc1ccccc1)NCCN1CCC[C@H]1C(=O)O | > 200 | > 200 µM | –
CC(=Nc1ccc(Cl)cc1)c1ccncc1 | – | – | inactive
O=S(=O)(O)c1cc(S(=O)(=O)O)c2c(N=Nc3ccc(N=Nc4ccccc4)cc3)c(O)ccc2c1 | > 100 | > 100 µM | –
COc1ccc(NS(=O)C2CCCCC2)cc1 (configuration not stated) | > 200 | > 200 µM | –
COC(=O)CN(CC1O[C@@H]2OC(C)(C)O[C@@H]2C1N=[N+]=[N-])C(=O)OCc1ccccc1 (some centres not stated) | > 200 | 20.9 µM | –
NCCCCNOCCCN | > 200 | > 200 µM | –
Cc1occc1C(=S)Nc1ccc(Cl)c(C(=O)OC(C)C2CC2)c1 (configuration not stated) | 0.0234 | 47.9 µM | –
CC1NC(=O)COC1c1ccccc1 (configuration not stated) | > 200 | > 200 µM | –
O=C1NC2=NN=C(c3ccc(Br)cc3)CN2NC12c1ccccc1-c1ccccc12 | > 100 | > 100 µM | –
COc1cccc(/C=N/[N-]C(N)=O)c1[O-].[Co+2].[OH3+].c1ccncc1 | > 14.5 | > 14.5 µM | –
c1ccc2c(c1)SCCCSCCCS2 | > 28.2 | > 28.2 µM | –
COc1cc2c[n+](C)c3c4cc5c(cc4ccc3c2cc1OC)OCO5 | > 17.8 | 0.437 µM | –
NC(=S)C(=S)N=Cc1c(O)c2ccccc2oc1=O | > 200 | 102 µM | –
CN(C)C=Nc1c(Br)cc(Br)c2nonc12 | > 200 | > 200 µM | –
O=c1[nH]c2ncccc2c(=O)n1OS(=O)(=O)c1ccccc1 | > 200 | 135 µM | –
COc1ccc2c(c1)C=CC1OC(C(C)=O)(C(C)=O)C(C=O)=CN21 (configuration not stated) | > 79.4 | 38.9 µM | –
c1ccc2c(c1)Sc1ccccc1C2=C1c2ccccc2Sc2ccccc21 | > 200 | 10.7 µM | –
